Measurements as given in US20100216751A1 (priority 2007, published 2010).

Assay: Pharmacokinetic evaluation of liquid bevirimat dosage forms, oral gavage, male Cynomolgus monkeys
Details: male, cynomolgus monkey, in vivo, po; for concentration at 72 hr: BLOQ=below 50 ng/mL; for AUC: AUCall
Description: Six male Cynomolgus monkeys having an initial body weight of about 3.5 to about 4.5 kg are allowed 7 days to acclimate to their individual housing units. Monkeys are supplied with water and a commercial diet ad libitum prior to the study initiation. Food is withheld from the monkeys for a minimum of twelve hours before the study and during the study until four hours postdose when food is returned. Water is supplied ad libitum.
Test formulations are administered to the monkeys at time 0 on appropriate days. Test formulations will be dosed orally via oral gavage or intravenously.
Samples are drawn at the frequencies indicated below. Each blood sample (0.5 mL) is collected from the monkey's saphenous vein via a butterfly catheter and placed into a chilled polypropylene tube containing sodium heparin as the anticoagulant. Blood samples are centrifuged at a temperature of 4° C. at a speed of 3,000 rpm for 15 minutes. All samples are maintained chilled throughout processing. Plasma is collected after centrifugation, pipetted into a 2-mL polypropylene microtube, and frozen on dry-ice pending analytical evaluation.

[1] = 50 mg FAE/monkey, Plasma concentration, 12.5 mg FAE/mL in 10% HPβCD, 50 mg FAE/monkey oral gavage, monkeys 186,116,120,AVG
[2] = 50 mg FAE/monkey, Plasma concentration, 12.5 mg FAE/mL in 15% EtOH:0.5% TPGS:15% PG:5% Glycerin, 0.2% Povidone K90, 50 mg FAE/monkey oral gavage, monkeys 117,118,119,AVG
[3] = 50 mg FAE/monkey, Plasma concentration, 25 mg/mL in 30% EtOH:1% TPGS:30% PG:10% Glycerin, 50 mg FAE/monkey oral gavage, monkeys 117,118,119,AVG
[4] = 50 mg FAE/monkey, Plasma concentration, 50 mg FAE/mL in 40% EtOH:40% PG:20% Glycerol, 50 mg FAE/monkey oral gavage, monkeys 117,118,119,AVG
[5] = 50 mg, 12.5 mg FAE/mL in 10% HPβCD, 50 mg FAE/monkey oral gavage, monkeys 186,116,120,AVG
[6] = 50 mg, 12.5 mg FAE/mL in 15% EtOH:0.5% TPGS:15% PG:5% Glycerin, 0.2% Povidone K90, 50 mg FAE/monkey oral gavage, monkeys 117,118,119,AVG
[7] = 50 mg, 12.5 mg FAE/mL in 40% PG, 20% Glycerin, 0.25% Tween80, 0.2% Povidone K15, 50 mg FAE oral gavage, monkeys 186,116,120,AVG

C=C(C)[C@@H]1CC[C@]2(C(=O)O)CC[C@]3(C)[C@H](CC[C@@H]4[C@@]5(C)CC[C@H](OC(=O)CC(C)(C)C(=O)O)C(C)(C)[C@@H]5CC[C@]43C)[C@@H]12 [Bevirimat, 3-O-(3′,3′-dimethylsuccinyl)betulinic acid]
concentration at 2 hr [1]: 59200 ng/mL | concentration at 2 hr [2]: 51300 ng/mL | concentration at 2 hr [3]: 56700 ng/mL | concentration at 2 hr [4]: 25800 ng/mL | concentration at 2 hr (50 mg FAE/monkey, Plasma concentration, 50 mg FAE/mL in 40% PG:20% Glycerin:1% TPGS:5% Tween 80 in SWFI, 50 mg FAE/monkey oral gavage, monkeys 117,118,119,AVG): 17900 ng/mL | concentration at 4 hr [1]: 35000 ng/mL | concentration at 4 hr [2]: 33100 ng/mL | concentration at 6 hr [1]: 20700 ng/mL | concentration at 6 hr [2]: 23100 ng/mL | concentration at 8 hr (50 mg FAE/monkey, Plasma concentration, 8.0 hr, 12.5 mg FAE/mL in 10% HPβCD, 50 mg FAE/monkey oral gavage, monkeys 186,116,120,AVG): 13000 ng/mL | concentration at 24 hr (50 mg FAE/monkey, Plasma concentration, 24 hr, 12.5 mg FAE/mL in 10% HPβCD, 50 mg FAE/monkey oral gavage, monkeys 186,116,120,AVG): 1560 ng/mL | concentration at 72 hr [1]: 120 ng/mL | concentration at 72 hr (50 mg FAE/monkey, Plasma concentration, 12.5 mg FAE/mL in 15% EtOH:0.5% TPGS:15% PG:5% Glycerin, 50 mg FAE/monkey oral gavage, monkeys 117,118,119,AVG): 233 ng/mL | concentration at 72 hr [3]: 69.3 ng/mL | concentration at 72 hr [4]: 76 ng/mL | AUC [5]: 348 µg·h/mL | AUC [6]: 488 µg·h/mL | AUC [7]: 212 µg·h/mL | Cmax [5]: 59200 ng/mL | Cmax [6]: 51300 ng/mL | Cmax (50 mg, 12.5 mg FAE/mL in 15% Ethanol, 30% PG, 10% Glycerin, 50 mg FAE oral gavage, monkeys 117,118,119,AVG): 64100 ng/mL | Cmax [7]: 42800 ng/mL | Cmax (50 mg, 12.5 mg FAE/mL in 40% PG, 20% Glycerin, 1% TPGS, 0.25% Tween80, 0.2% Povidone K15, 50 mg FAE/monkey oral gavage, monkeys 117,118,119,AVG): 93300 ng/mL | Cmax (50 mg, 50 mg FAE/mL in 40% EtOH:40% PG:20% Glycerol, 50 mg FAE/monkey oral gavage, monkeys 117,118,119,AVG): 25800 ng/mL | Cmax (50 mg, 50 mg/monkey, PG/glycerin/Vitamin ETPGS/Tween80/Plasdone C15 formulation, AVG): 62400 ng/mL | Cmax (50 mg, 50 mg/monkey, PG/glycerin/Vitamin ETPGS/Tween80/Plasdone C15 formulation, individual monkey): 55100 ng/mL | Cmax (50 mg, 50 mg/monkey, PG/glycerin/Vitamin ETPGS/ethanol formulation, AVG): 60100 ng/mL | Cmax (50 mg, 50 mg/monkey, PG/glycerin/Vitamin ETPGS/ethanol formulation, individual monkey): 58900 ng/mL | half-life (50 mg, t1/2, 12.5 mg FAE/mL in 10% HPβCD, 50 mg FAE/monkey oral gavage, monkeys 186,116,120,AVG): 9.9 h | half-life (50 mg, t1/2, 12.5 mg FAE/mL in 15% EtOH:0.5% TPGS:15% PG:5% Glycerin, 50 mg FAE/monkey oral gavage, monkeys 117,118,119,AVG): 12 h | half-life (50 mg, t1/2, 12.5 mg FAE/mL in 15% EtOH:0.5% TPGS:15% PG:5% Glycerin, 0.2% Povidone K90, 50 mg FAE/monkey oral gavage, monkeys 117,118,119,AVG): 12.2 h | half-life (50 mg, t1/2, 12.5 mg FAE/mL in 15% Ethanol, 30% PG, 10% Glycerin, 50 mg FAE oral gavage, monkeys 117,118,119,AVG): 8.9 h | half-life (50 mg, t1/2, 12.5 mg FAE/mL in 40% PG, 20% Glycerin, 0.25% Tween80, 0.2% Povidone K15, 50 mg FAE oral gavage, monkeys 186,116,120,AVG): 8 h | half-life (50 mg, t1/2, 12.5 mg FAE/mL in 40% PG, 20% Glycerin, 1% TPGS, 0.25% Tween80, 50 mg FAE/monkey oral gavage, monkeys 186,116,120,AVG): 9.9 h | half-life (50 mg, t1/2, 12.5 mg FAE/mL in 40% PG, 20% Glycerin, 1% TPGS, 0.25% Tween80, 0.2% Povidone K15, 50 mg FAE/monkey oral gavage, monkeys 117,118,119,AVG): 10.4 h | half-life (50 mg, t1/2, 25 mg/mL in 30% EtOH:1% TPGS:30% PG:10% Glycerin, 50 mg FAE/monkey oral gavage, monkeys 117,118,119,AVG): 10.6 h | half-life (50 mg, t1/2, 50 mg FAE/mL in 40% EtOH:40% PG:20% Glycerol, 50 mg FAE/monkey oral gavage, monkeys 117,118,119,AVG): 9.8 h | half-life (50 mg, t1/2, 50 mg FAE/mL in 40% PG:20% Glycerin:1% TPGS:5% Tween 80 in SWFI, 50 mg FAE/monkey oral gavage, monkeys 117,118,119,AVG): 11.8 h | half-life (50 mg, t1/2, 10% HPβCD, 50 mg FAE/monkey oral gavage, monkeys 117,118,119,AVG): 10 h | half-life (50 mg, t1/2, oral, 50 mg/monkey, PG/glycerin/Vitamin ETPGS/Tween80/Plasdone C15 formulation, AVG): 6.4 h | half-life (50 mg, t1/2, oral, 50 mg/monkey, PG/glycerin/Vitamin ETPGS/Tween80/Plasdone C15 formulation, individual monkey): 8.6 h | half-life (50 mg, t1/2, oral, 50 mg/monkey, PG/glycerin/Vitamin ETPGS/ethanol formulation, AVG): 6.9 h | half-life (50 mg, t1/2, oral, 50 mg/monkey, PG/glycerin/Vitamin ETPGS/ethanol formulation, individual monkey): 6.2 h | Tmax (50 mg, tmax, 12.5 mg FAE/mL in 40% PG, 20% Glycerin, 1% TPGS, 0.25% Tween80, 0.2% NaCMC, 50 mg FAE/monkey oral gavage, monkeys 117,118,119,AVG): 1 h | concentration at 0.25 h (50 mg/monkey, Plasma Concentration, PG/glycerin/Vitamin ETPGS/Tween80/Plasdone C15 formulation, AVG): 64.6 ng/mL | concentration at 0.25 h (50 mg/monkey, Plasma Concentration, PG/glycerin/Vitamin ETPGS/Tween80/Plasdone C15 formulation, individual monkey): 69.8 ng/mL | concentration at 0.5 h (50 mg/monkey, Plasma Concentration, PG/glycerin/Vitamin ETPGS/Tween80/Plasdone C15 formulation, 0.50 hr, AVG): 3550 ng/mL
